The target of data set [1] is T1, GST-LXRβ ligand-binding domain (Homo sapiens, UniProt P55055).
T1 construct: amino acids 156-461; NP009052; made in house; host or cells: E. coli
T1 sequence (P55055 156-460 limits assumed): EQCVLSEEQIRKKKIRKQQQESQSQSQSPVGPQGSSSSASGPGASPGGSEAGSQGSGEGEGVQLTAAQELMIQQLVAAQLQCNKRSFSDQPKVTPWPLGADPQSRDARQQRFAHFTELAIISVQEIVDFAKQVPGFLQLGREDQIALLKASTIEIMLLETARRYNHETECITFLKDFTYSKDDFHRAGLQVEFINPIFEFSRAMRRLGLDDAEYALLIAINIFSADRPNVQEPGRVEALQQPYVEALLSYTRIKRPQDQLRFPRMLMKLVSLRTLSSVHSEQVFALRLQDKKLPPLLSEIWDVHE
As to the kind of experiment: TR-FRETβ activity assay (NCoA3 coactivator peptide recruitment). The format is biochemical. The note with it: 1 μM 24(S)-25-epoxycholesterol prestimulation. In a few lines:
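E. coli-expressed GST-LXRβ LBD (aa 156-461, 76 nM) with biotinylated NCoA3 peptide (400 nM) in Tris/HCl pH 6.8 containing 1 μM 24(S)-25-epoxycholesterol agonist. Compounds tested at 50 μM down to 0.002 μM in triplicate. TR-FRET (Tb cryptate/XL665, ex 340, em 615/665 nm) read after 1 h at 4° C.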

Data set [2] is described as follows: Pharmacokinetics in mice after single oral dosing (blood/plasma and liver exposure). It is filed as in vivo. The note with it: 20 mg/kg single oral dose. The method, then: The pharmacokinetics of the compounds was assessed in mice after single dosing and oral administrations. Blood/plasma and liver exposure was measured via LC-MS.
The study design was as follows: • Animals: C57/bl6/J (Janvier) males • Diet: standard rodent chow • Dose: 20 mg/kg • Animal handling: animals were withdrawn from food at least 12 h before administration • Design: single dose oral administration, n=3 animals per group • Sacrifice: at stated time point (4, 12 or 24 h) after administration • Bioanalytics: LC-MS of liver and blood/plasma samples

In data set [3] the test system is LXR target genes (Scd1, Fas, Srebp1) in liver. As to the kind of experiment: Short term HFD mouse model: gene expression in liver tissue. The format is in vivo. As to conditions: HFD mice, expression normalized to Tbp. The method, then: The in vivo transcriptional regulation of several LXR target genes by LXR modulators was assessed in mice.
For this, C57BL/6J were purchased from Elevage Janvier (Rennes, France) at the age of 8 weeks. After an acclimation period of two weeks, animals were prefed on a high fat diet (HFD) (Ssniff Spezialdiäten GmbH, Germany, Surwit EF D12330 mod, Cat. No. E15771-34), with 60 kcal % from fat plus 1% (w/w) extra cholesterol (Sigma-Aldrich, St. Louis, MO) for 5 days. Animals were maintained on this diet during treatment with LXR modulators. The test compounds were formulated in 0.5% hydroxypropylmethylcellulose (HPMC) and administered in three doses (from 1.5 to 20 mg/kg each) by oral gavage according to the following schedule: on day one, animals received treatment in the morning and the evening (ca. 17:00), on day two animals received the final treatment in the morning after a 4 h fast and were sacrificed 4 h thereafter. Animal work was conducted according to the national guidelines for animal care in Germany.
Analysis of gene expression in liver tissue. To obtain total RNA from frozen liver tissue, samples (25 mg liver tissue) were first homogenized with RLA buffer (4M guanidin thiocyanate, 10 mM Tris, 0.97% w:v β-mercapto-ethanol). RNA was prepared using a SV 96 total RNA Isolation system (Promega, Madison, Wisconsin, USA) following the manufacturer's instructions. cDNAs were synthesized from 0.8-1 μg of total RNA using All-in-One cDNA Supermix reverse transcriptase (Absource Diagnostics, Munich, Germany). Quantitative PCR was performed and analyzed using Prime time Gene expression master mix (Integrated DNA Technologies, Coralville, Iowa, USA) and a 384-format ABI 7900HT Sequence Detection System (Applied Biosystems, Foster City, USA). The expression of the following genes was analysed: Stearoyl-CoA desaturase1 (Scd1), fatty acid synthase (Fas) and sterol regulatory element-binding protein1 (Srebp1). Specific primer and probe sequences (commercially available) are listed in Table 3. qPCR was conducted at 95° C. for 3 min, followed by 40 cycles of 95° C. for 15 s and 60° C. for 30 s. All samples were run in duplicates from the same RT-reaction. Gene expression was expressed in arbitrary units and normalized relative to the mRNA of the housekeeping gene TATA box binding protein (Tbp) using the comparative Ct method.

The mark [4] stands for this setting: Mus musculus, 4 h, three oral doses of 20 mg/kg, read-out: Scd1 suppresion compared to vehicle.

Bounds are passed on as bounds.

We go through 4 compounds from US20260083704A1, “LXR MODULATORS WITH BICYCLIC CORE MOIETY FOR TREATING DYSLIPIDEMIAS” (OrsoBio, Inc., priority 2022, published 2026).

One may read the EC50 as the concentration at which the effect is half-maximal.

For the compound `Cc1ccc(S(=O)(=O)n2c(-c3cccc(-c4ccc(C(=O)O)cc4Cl)c3)c(-c3ccsc3C#N)c3cc(F)ccc32)cc1` [3/48], the EC50 in data set [1] was 0.1 to 1 µM. Moreover, the liver exposure result in data set [2] (time point 12 h) was “A (<300 nM)”. Moreover, the “blood/plasma exposure (below LLOQ)” value in data set [2] (time point 12 h, number is the LLOQ) is on record as “(1.2 ng/mL)”. Further, the “Srebp1c suppr. compared to vehicle” value in data set [3] (three oral doses of 20 mg/kg) is recorded as “D (<0.3)”. Besides, the response vs control in vivo at 20 mg/kg in data set [3] (setting [4]) is less than 30%.
In data set [1], `Cc1ccc(S(=O)(=O)n2c(-c3cccc(-c4ccc(C(=O)O)cc4)c3)c(-c3ccsc3C#N)c3cc(F)ccc32)cc1` [5/3] gave an EC50 of 0.1 to 1 µM. In addition, in data set [2] (time point 4 h), the blood/plasma exposure result is on record as “C (100 nM to <300 nM)”, the liver exposure entry is “C (1 μM to ≤3 μM)” and the liver/blood ratio entry is “C (10 to ≤30)”. Further, in data set [3] (three oral doses of 20 mg/kg), the “Fasn suppression compared to vehicle” value is recorded as “D (<0.3)”. The response vs control in vivo at 20 mg/kg in data set [3] (setting [4]) lay in the range of 30 to 60%.
Turning to `Cc1ccc(S(=O)(=O)n2c(-c3cccc(-c4ccc(C(=O)O)cc4)c3)c(-c3ccsc3C#N)c3cc(F)ccc32)cc1C` [23/2], in data set [1], the EC50 lay in the range of 0.1 to 1 µM. Moreover, in data set [2] (time point 4 h), the blood/plasma exposure result was “B (300 nM to ≤1 μM)”, the liver exposure result was “D (>3 μM)” and the liver/blood ratio result was “C (10 to ≤30)”. Also, in data set [3] (three oral doses of 20 mg/kg), the “Fasn suppression compared to vehicle” value is recorded as “C (0.3 to ≤0.6)”. In data set [3] (setting [4]), the response vs control in vivo at 20 mg/kg was less than 30%.
Consider `N#Cc1cccc(C#N)c1-c1c(-c2cccc(-c3ccc(C(=O)NCC(=O)O)cc3Cl)c2)n(S(=O)(=O)c2ccc(C(F)F)cc2)c2ccc(F)cc12` [Compound 21/3], for which the EC50 in data set [1] was less than 0.1 µM. Also, the “Fasn suppression compared to vehicle” value in data set [3] (three oral doses of 10 mg/kg) is “C (0.3 to ≤0.6)”. Moreover, the response vs control in vivo at 10 mg/kg in data set [3] (Mus musculus, 4 h, three oral doses of 10 mg/kg, read-out: Scd1 suppresion compared to vehicle) is less than 30%.
